From patent publication US20260347353A1, “INDOLIZINE DERIVATIVES FOR TREATING CANCER” (Antares Therapeutics, Inc., priority 2022, published 2026)

What was measured:
[1] = biological target: T1, p53 Y220C mutant protein (amino acid residues 94-293) (Homo sapiens, UniProt P04637, Y220C); assay: Surface Plasmon Resonance (SPR) assay, p53 Y220C Kd_kinetic; settings: multi-cycle kinetics, 16 or 20 °C, pH 7.5, 1:1 binding model
T1 construct: p53 Y220C mutant protein (amino acid residues 94-293)
Protocol: SPR experiments are performed on a Biacore 8K instrument. […] Compounds are 2-fold, 7-point serial diluted; the top concentration varies depending on the potency. Compound binding affinities are measured in the multi-cycle kinetics mode, at 30 μL/min flow rate with 60 seconds association time and 120 seconds dissociation time. The running buffer contains 50 mM Tris, pH 7.5, 100 mM NaCl, 1 mM DTT, 0.01% Brij35, 0.05% Tween-20 and 1% DMSO. The assay temperature is maintained at 16 or 20 °C and data are fit into the 1:1 binding model using the Biacore Insight Evaluation software.

p53 Y220C = p53 Y220C (Homo sapiens, UniProt P04637, Y220C); assay: Luciferase Reporter Assay, p53 Y220C (NCIH1299 cells with inducible p53 Y220C and p53 response element-luciferase); type: cell-based; settings: 6 hour compound treatment, read-out: Luc P53 Y220C AC50
Protocol: Luciferase reporter (Luc) driven by p53 response element (LTV-p53-Luc (SKU #: LTLR007); G&P Biosciences) and inducible p53 Y220C construct (Tet-One inducible expression system; Takara) were stably expressed in NCIH1299 cells by lentiviral transduction. The cells were then used for p53 reporter assay. 5,000 cells were seeded in each well of 384 plate and cultured in 0.5 ug/mL doxycycline (D3072; Sigma) containing medium for 24 hours before compound treatment. After 6 hour of compound treatment, equal volume of One-Glo reagent (E6110; Promega) was added to each well and the plate was incubated for 5 minutes with shaking at room temperature. The luciferase activity was immediately measured with PheraStar microplate reader. Luciferase activity was stimulated by 10 uM of a tool compound as positive control and AC50 was calculated.

NUGC3 cells (p53 Y220C) = assay: Cell Proliferation Assay (CellTiter-Glo), NUGC3 p53 Y220C; type: cell-based; settings: Homo sapiens, NUGC-3, 120 h, 5 days, read-out: CTG NUGC3 P53 Y220C IC50
Protocol: (§1) Inducible p53 Y220C and R273H constructs (Tet-One inducible expression system; Takara) were stably expressed in NCIH1299 cells by lentiviral transduction. NUGC3, A549, BxPC3, T3M4, HuH7, HCC2935, MFE296, NCIH1299, NCIH1299-inducible p53 Y220C, and NCIH1299-inducible p53 R273H cell lines were used for cell proliferation assay. 250-500 cells were seeded in each well of 384 plate and then compounds were dispensed into each well using Echo or Tecan. After 5 days of incubation, equal volume of CellTiter-Glo reagent (G7570; Promega) was added into each well and the plate was incubated at room temperature for 10 minutes with shaking. The luminescent signal was measured by PheraStar microplate reader and IC50 was calculated.

[2] = system: NCIH1299-inducible p53 Y220C cells; assay: Cell Proliferation Assay (CellTiter-Glo), NCIH1299-inducible p53 Y220C; type: cell-based; settings: Homo sapiens, NCI-H1299, 120 h, 5 days, read-out: CTG H1299 P53 Y220C IC50
Protocol: as §1

T1 sequence (P04637 94-293, stated change not applied): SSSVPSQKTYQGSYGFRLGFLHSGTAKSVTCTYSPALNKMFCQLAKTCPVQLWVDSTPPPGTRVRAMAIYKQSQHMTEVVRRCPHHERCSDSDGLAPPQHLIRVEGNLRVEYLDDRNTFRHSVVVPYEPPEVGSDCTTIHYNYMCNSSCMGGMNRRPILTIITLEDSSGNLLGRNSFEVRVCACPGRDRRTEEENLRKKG

| Compound | Kd [1] [µM] | AC50 (p53 Y220C) [µM] | IC50 (NUGC3 cells (p53 Y220C)) [µM] | IC50 [2] [µM] |
| --- | --- | --- | --- | --- |
| Cc1c(C(=O)NCc2nc(-c3cc4c(N[C@@H]5CCN(C)C[C@@H]5F)cccn4c3SC(F)(F)F)no2)sc2nc[nH]c(=O)c12 [Example 14, N-{[3-(8-{[(3S,4R)-3-fluoro-1-methylpiperidin-4-yl]amino}-3-[(trifluoromethyl)sulfanyl]indolizin-2-yl)-1,2,4-oxadiazol-5-yl]methyl}-5-methyl-4-oxo-3H-thieno[2,3-d]pyrimidine-6-carboxamide] | 0.01 to 0.1 | 1.5 to 3 | 0.75 to 1.5 | 0.75 to 1.5 |
| CN1CC[C@@H](Nc2cccn3c(SC(F)(F)F)c(-c4noc(CNC(=O)c5ccc6c(c5)C(C)(C)C(=O)N6)n4)cc23)[C@@H](F)C1 [Example 15, N-{[3-(8-{[(3S,4R)-3-fluoro-1-methylpiperidin-4-yl]amino}-3-[(trifluoromethyl)sulfanyl]indolizin-2-yl)-1,2,4-oxadiazol-5-yl]methyl}-3,3-dimethyl-2-oxo-1H-indole-5-carboxamide] | < 0.01 | < 0.75 | < 0.75 | < 0.75 |
| CN1CC[C@@H](Nc2cccn3c(SC(F)(F)F)c(-c4noc(CNC(=O)c5ccc6c(c5)NC(=O)C6)n4)cc23)[C@@H](F)C1 [Example 16, N-{[3-(8-{[(3S,4R)-3-fluoro-1-methylpiperidin-4-yl]amino}-3-[(trifluoromethyl)sulfanyl]indolizin-2-yl)-1,2,4-oxadiazol-5-yl]methyl}-2-oxo-1,3-dihydroindole-6-carboxamide] | < 0.01 | 0.75 to 1.5 | < 0.75 | 0.75 to 1.5 |
| CN1CC[C@@H](Nc2cccn3c(SC(F)(F)F)c(-c4noc(CNC(=O)c5cccc6c5NC(=O)C6)n4)cc23)[C@@H](F)C1 [Example 17, N-{[3-(8-{[(3S,4R)-3-fluoro-1-methylpiperidin-4-yl]amino}-3-[(trifluoromethyl)sulfanyl]indolizin-2-yl)-1,2,4-oxadiazol-5-yl]methyl}-2-oxo-1,3-dihydroindole-7-carboxamide] | < 0.01 | < 0.75 | < 0.75 | 0.75 to 1.5 |
| CN1CC[C@@H](Nc2cccn3c(SC(F)(F)F)c(-c4noc(CNC(=O)c5ccc6c(c5)CC(=O)N6)n4)cc23)[C@@H](F)C1 [Example 18, N-{[3-(8-{[(3S,4R)-3-fluoro-1-methylpiperidin-4-yl]amino}-3-[(trifluoromethyl)sulfanyl]indolizin-2-yl)-1,2,4-oxadiazol-5-yl]methyl}-2-oxo-1,3-dihydroindole-5-carboxamide] | < 0.01 | 0.75 to 1.5 | < 0.75 | 0.75 to 1.5 |
| CN1CC[C@@H](Nc2cccn3c(SC(F)(F)F)c(-c4noc(CNC(=O)c5ccc6[nH]cc(C#N)c6c5)n4)cc23)[C@@H](F)C1 [Example 19, 3-cyano-N-{[3-(8-{[(3S,4R)-3-fluoro-1-methylpiperidin-4-yl]amino}-3-[(trifluoromethyl)sulfanyl]indolizin-2-yl)-1,2,4-oxadiazol-5-yl]methyl}-1H-indole-5-carboxamide] | 0.01 to 0.1 | 0.75 to 1.5 | < 0.75 | < 0.75 |
| CN1CC[C@@H](Nc2cccn3c(SC(F)(F)F)c(-c4noc(CNC(=O)c5csc(N6CCOCC6)n5)n4)cc23)[C@@H](F)C1 [Example 20, N-{[3-(8-{[(3S,4R)-3-fluoro-1-methylpiperidin-4-yl]amino}-3-[(trifluoromethyl)sulfanyl]indolizin-2-yl)-1,2,4-oxadiazol-5-yl]methyl}-2-(morpholin-4-yl)-1,3-thiazole-4-carboxamide] | < 0.01 | < 0.75 | < 0.75 | < 0.75 |
| COc1ccc2[nH]nc(C(=O)NCc3nc(-c4cc5c(N[C@@H]6CCN(C)C[C@@H]6F)cccn5c4SC(F)(F)F)no3)c2c1 [Example 21, N-{[3-(8-{[(3S,4R)-3-fluoro-1-methylpiperidin-4-yl]amino}-3-[(trifluoromethyl)sulfanyl]indolizin-2-yl)-1,2,4-oxadiazol-5-yl]methyl}-5-methoxy-1H-indazole-3-carboxamide] | 0.1 to 1 | 1.5 to 3 | 1.5 to 3 | 1.5 to 3 |
| CN1CC[C@@H](Nc2cccn3c(SC(F)(F)F)c(-c4noc(CNC(=O)c5ccc6c(c5)NC(=O)CN6C)n4)cc23)[C@@H](F)C1 [Example 23, N-{[3-(8-{[(3S,4R)-3-fluoro-1-methylpiperidin-4-yl]amino}-3-[(trifluoromethyl)sulfanyl]indolizin-2-yl)-1,2,4-oxadiazol-5-yl]methyl}-1-methyl-3-oxo-2,4-dihydroquinoxaline-6-carboxamide] | < 0.01 | < 0.75 | < 0.75 | < 0.75 |
| CN1CC[C@@H](Nc2cccn3c(SC(F)(F)F)c(-c4noc(CNC(=O)C5(O)CC5)n4)cc23)[C@@H](F)C1 [Example 24, N-{[3-(8-{[(3S,4R)-3-fluoro-1-methylpiperidin-4-yl]amino}-3-[(trifluoromethyl)sulfanyl]indolizin-2-yl)-1,2,4-oxadiazol-5-yl]methyl}-1-hydroxycyclopropane-1-carboxamide] | < 0.01 | < 0.75 | 0.75 to 1.5 | 0.75 to 1.5 |
| CN1CC[C@@H](Nc2cccn3c(SC(F)(F)F)c(-c4noc(CNC(=O)C5COC5)n4)cc23)[C@@H](F)C1 [Example 25, N-{[3-(8-{[(3S,4R)-3-fluoro-1-methylpiperidin-4-yl]amino}-3-[(trifluoromethyl)sulfanyl]indolizin-2-yl)-1,2,4-oxadiazol-5-yl]methyl}oxetane-3-carboxamide] | < 0.01 | 1.5 to 3 | 1.5 to 3 | 1.5 to 3 |
| COC1(C(=O)NCc2nc(-c3cc4c(N[C@@H]5CCN(C)C[C@@H]5F)cccn4c3SC(F)(F)F)no2)CC1 [Example 26, N-{[3-(8-{[(3S,4R)-3-fluoro-1-methylpiperidin-4-yl]amino}-3-[(trifluoromethyl)sulfanyl]indolizin-2-yl)-1,2,4-oxadiazol-5-yl]methyl}-1-methoxycyclopropane-1-carboxamide] | 0.01 to 0.1 | 1.5 to 3 | 1.5 to 3 | 1.5 to 3 |
| CN1CC[C@@H](Nc2cccn3c(SC(F)(F)F)c(-c4noc(CNC(=O)c5ccns5)n4)cc23)[C@@H](F)C1 [Example 27, N-{[3-(8-{[(3S,4R)-3-fluoro-1-methylpiperidin-4-yl]amino}-3-[(trifluoromethyl)sulfanyl]indolizin-2-yl)-1,2,4-oxadiazol-5-yl]methyl}-1,2-thiazole-5-carboxamide] | < 0.01 | < 0.75 | < 0.75 | 0.75 to 1.5 |
| CN1CC[C@@H](Nc2cccn3c(SC(F)(F)F)c(-c4noc(CNC(=O)[C@H]5COCCO5)n4)cc23)[C@@H](F)C1 [Example 29] | < 0.01 | 0.75 to 1.5 | 0.75 to 1.5 | 0.75 to 1.5 |
| Cc1ccsc1C(=O)NCc1nc(-c2cc3c(N[C@@H]4CCN(C)C[C@@H]4F)cccn3c2SC(F)(F)F)no1 [Example 30, N-{[3-(8-{[(3S,4R)-3-fluoro-1-methylpiperidin-4-yl]amino}-3-[(trifluoromethyl)sulfanyl]indolizin-2-yl)-1,2,4-oxadiazol-5-yl]methyl}-3-methylthiophene-2-carboxamide] | 0.01 to 0.1 | 0.75 to 1.5 | 1.5 to 3 | 1.5 to 3 |
| CN1CC[C@@H](Nc2cccn3c(SC(F)(F)F)c(-c4noc(CNC(=O)C#CC5(C)CC5)n4)cc23)[C@@H](F)C1 [Example 31, N-{[3-(8-{[(3S,4R)-3-fluoro-1-methylpiperidin-4-yl]amino}-3-[(trifluoromethyl)sulfanyl]indolizin-2-yl)-1,2,4-oxadiazol-5-yl]methyl}-3-(1-methylcyclopropyl)prop-2-ynamide] | < 0.01 | < 0.75 | < 0.75 | < 0.75 |
| CN1CC[C@@H](Nc2cccn3c(SC(F)(F)F)c(-c4noc(CNC(=O)c5sccc5F)n4)cc23)[C@@H](F)C1 [Example 32, 3-fluoro-N-{[3-(8-{[(3S,4R)-3-fluoro-1-methylpiperidin-4-yl]amino}-3-[(trifluoromethyl)sulfanyl]indolizin-2-yl)-1,2,4-oxadiazol-5-yl]methyl}thiophene-2-carboxamide] | < 0.01 | < 0.75 | < 0.75 | < 0.75 |
